Test results: PubChem BioAssay (NCI)
“And” between values parts separate entries of the source, which are not always exact repeats. Equal values may be shown once.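 Compound exposure: 48 hours, 5 concentrations, 96-well plates. Here, GI50 denotes the concentration required for 50% inhibition of growth. TGI marks complete inhibition of growth.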

Legend:
Test in all cases: inhibition of tumour cell growth, NCI panel, 48 h
MDA-MB-231 breast = test system: MDA-MB-231 breast
MOLT-4 leukemia = test system: MOLT-4 leukemia
HCC-2998 colon = test system: HCC-2998 colon
SW-620 colon = test system: SW-620 colon
SK-MEL-2 melanoma = test system: SK-MEL-2 melanoma
MALME-3M melanoma = test system: MALME-3M melanoma
SF-295 CNS = test system: SF-295 CNS
NCI-H226 lung = test system: NCI-H226 lung
COLO 205 colon = test system: COLO 205 colon
NCI/ADR-RES ovarian = test system: NCI/ADR-RES ovarian

SMILES | GI50 (MDA-MB-231 breast) | TGI (MDA-MB-231 breast) | GI50 (MOLT-4 leukemia) [nM] | TGI (MOLT-4 leukemia) | GI50 (HCC-2998 colon) | TGI (HCC-2998 colon) | GI50 (SW-620 colon) [nM] | TGI (SW-620 colon) | GI50 (SK-MEL-2 melanoma) [nM] | TGI (SK-MEL-2 melanoma) | GI50 (MALME-3M melanoma) [nM] | TGI (MALME-3M melanoma) | GI50 (SF-295 CNS) [nM] | TGI (SF-295 CNS) | GI50 (NCI-H226 lung) | TGI (NCI-H226 lung) | GI50 (COLO 205 colon) | TGI (COLO 205 colon) | GI50 (NCI/ADR-RES ovarian) | TGI (NCI/ADR-RES ovarian)
COC(=O)[C@H](C)NC(=O)[C@@H](OC)[C@@H]1Cc2cc3cc(OC4CC(OC5CC(O)C(O)C(C)O5)C(O)C(C)O4)c(C)c(O)c3c(O)c2C(=O)[C@H]1OC1CC(OC2CC(OC3CC(C)(O)C(O)C(C)O3)C(O)C(C)O2)C(O)C(C)O1 (stereo partly specified) | 247 nM | > 50000 nM | 232 | 4130 nM | 160 nM | 2080 nM | 116 | > 50000 nM | 90.8 | 588 nM | 29.6 | 315 nM | 88.5 | > 50000 nM | 106 nM | 495 nM | 93.4 nM | 1090 nM | 12300 nM | > 50000 nM
CCNNC(=O)[C@@H]1[C@H](c2cc(OC)c(OC)c(OC)c2)c2cc3c(cc2[C@H](O)[C@H]1CO)OCO3 | 500 nM | > 100000 nM | 400 | > 100000 nM | 374 nM | > 22200 nM | 396 | > 100000 nM | 614 | > 100000 nM | > 20500 | > 100000 nM | 320 | > 100000 nM | 311 nM | – | 266 nM | 646 nM | 509 nM | 17700 nM
CN(CC(=O)O)Cc1oc(CO)cc(=O)c1O | – | > 100000 nM | – | > 100000 nM | – | > 100000 nM | – | > 100000 nM | – | > 100000 nM | – | > 100000 nM | – | > 100000 nM | – | > 100000 nM | – | > 100000 nM | – | > 100000 nM
Cc1nc2c(N3CCCC3)nc(N3CCNCC3)nc2nc1NCc1ccccc1 | 5670 nM | 12100 nM and 10100 nM | 3340 | 15100 nM and > 21200 nM | – | 2950 nM | 5900 | 12500 nM and 7270 nM | 4480 | 9420 nM and 9970 nM | 7170 | 14500 nM and 4230 nM | 5810 | 11300 nM and 5020 nM | 7540 nM | 16100 nM and 28400 nM | 1770 nM | 7590 nM and 3320 nM | 6840 nM | 13600 nM and 29000 nM
CC(C)C[C@H](NC(=O)[C@@H](NC(=O)c1cccc(-c2ccccc2)n1)[C@@H](C)O)B(O)O | 4.85 nM and 19.1 nM | – | 2.89 | 8.87 nM | 5.17 nM and 11.6 nM | 17.1 nM and 18.9 nM | 4.11 | 2340 nM | 3.87 | 18.7 nM and < 19.5 nM | 2.97 | 8.38 nM and < 19.6 nM | 10.2 | 55.3 nM and 26.2 nM | 2.19 nM and < 11.6 nM | 5.38 nM and 24.5 nM | 8.13 nM and < 12.6 nM | 3300 nM | 345 nM and 249 nM | 6190 nM
COc1cc(C2CC(=O)Nc3c2ccc2ccccc32)cc(Br)c1OC (stereo unspecified) | 2830 nM | > 46700 nM | 450 | 12400 nM | 840 nM | > 29900 nM | 359 | > 100000 nM | 695 | > 100000 nM | 582 | > 70600 nM | 316 | – | 6400 nM | > 100000 nM | 369 nM | 1350 nM | 279 nM | 1130 nM
Cc1cc(C)c(S(=O)(=O)N(CCc2cccc(Br)c2)Cc2ccc(-c3cccc(S(C)(=O)=O)c3)cc2)c(C)c1 | > 100000 nM | > 100000 nM | > 100000 | > 100000 nM | > 100000 nM | > 100000 nM | > 100000 | > 100000 nM | > 100000 | > 100000 nM | > 100000 | > 100000 nM | > 100000 | > 100000 nM | > 100000 nM | > 100000 nM | > 100000 nM | > 100000 nM | > 100000 nM | > 100000 nM
